# In paper PMC7796031, “Studies of Coumarin Derivatives for Constitutive Androstane Receptor (CAR) Activation” (Molecules, 2020):
# “Also recorded” adds a separate entry of the source.
# Target: T1, Constitutive androstane receptor (CAR) (Homo sapiens, UniProt Q14994)
# T1 construct: The pGL4-gtPBREM plasmid was transfected into Hep3B cells; endogenous in cells
# T1 sequence (Q14994 1-352): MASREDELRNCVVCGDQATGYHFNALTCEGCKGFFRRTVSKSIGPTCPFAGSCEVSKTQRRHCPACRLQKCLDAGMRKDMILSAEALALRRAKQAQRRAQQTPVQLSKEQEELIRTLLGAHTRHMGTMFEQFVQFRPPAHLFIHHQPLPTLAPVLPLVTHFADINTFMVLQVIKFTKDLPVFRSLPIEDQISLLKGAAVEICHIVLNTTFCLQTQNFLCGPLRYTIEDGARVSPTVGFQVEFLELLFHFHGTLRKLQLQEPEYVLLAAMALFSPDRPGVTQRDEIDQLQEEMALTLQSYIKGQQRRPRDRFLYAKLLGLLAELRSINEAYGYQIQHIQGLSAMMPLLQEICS
# Assay: In vitro CAR activation screening assay (UGT1A1 promoter gtPBREM-pGL4 luciferase reporter in Hep3B-gtPBREM cells)
# Type: cell-based
# Details: 10 μM
# Source text: Until now, there is no commercially available high throughput screening method for CAR activation. Traditionally, CAR activation can be detected in western blots by its downstream signals such as UGT1A1, MRP2 or CYP2B6. […] However, this method was slow and pricy. In order to rapidly screen all the compounds for CAR activation at less cost, an in vitro CAR activation screening assay was developed: DNA was extracted from Hep3B cells and UGT1A1 promoter was obtained using PCR amplification. Ligation between UGT1A1 promoter and pGL4 vector was performed and the plasmid was amplified via E. coli replication. The desired plasmid was extracted from E. coli and transfected into Hep3B. The desired colony bearing UGT1A1 promoter-pGL4 plasmid was selected by neomycin. CAR activation was measured by adding tested compounds to Hep3B for several hours and luminescence was measured. Higher activation will get higher luminescence readout. This assay system was validated with two different CAR agonists: CITCO (direct agonist) and scoparone (an indirect agonist). […] Different concentration of scoparone at 1, 5, 10 and 20 μM had been tested either for luciferase assay or downstream UGT1A1 and MRP2 expression (data not shown) and 10 μM was selected to be the best condition for the following work.
# After successfully establishing the in vitro assay, all of the coumarin compounds were subjected to the screening (at 10 μM) and their SAR was discussed. Although the reporter system can successfully identify CAR-activating compounds under 8 h and display better efficiency and sensitivity compared with western blots, it only presented a medium luciferase response. According to previous studies, CITCO was reported to only moderately enhance human CAR (less than 2-fold), compared with the enhance provided by TCPOBOP for murine CAR (5- to 10-fold) in luciferase reporter assays. […] Another possibility for the medium response in our reporter system might be the contribution of the whole gtPBREM element which might include response-suppressive elements that was used and the single nucleotide variation of DR3 element which was reported to slightly reduce the original UGT1A1 activity.
# The genomic DNA was isolated from Hep3B cells using Wizard® Genomic DNA Purification Kit (Promega, Fitchburg, WI, USA). The promoter region of UGT1A1 gene, gtPBREM element, was amplified by AccuPrime^TM Taq DNA Polymerase High Fidelity Kit (Invitrogen, MA, USA). The sequence of the amplified element was confirmed by DNA sequencing company and cloned into pGL4 luciferase reporter vector. The pGL4-gtPBREM plasmid was transfected into Hep3B cells. The stable pGL4-gtPBREM transfected Hep3B cells, Hep3B-gtPBREM cells, were established after G418 selection. The luciferase activity represented of CAR activation ability was measured using individual established clone. Further, CAR-shRNA was obtained from the Genomic Research Center and transfected into Hep3B-gtPBREM cells. The transient transfected shCAR-Hep3B-gtPBREM cells were used for further luciferase assays.
# The Hep3B-gtPBREM cells and shCAR-Hep3B-gtPBREM cells (1.5 × 10^5 cells/well) were seeded into 12-well plates for overnight then pre-determined concentration compounds were added for desired time. After treatment, transfected cells were washed twice in PBS, lysated with 1× passive lysis buffer and luciferase intensity of equal amount of cell lysate was measured by a Synergy HT Multi-Mode Microplate Reader (BioTek, Winooski, VT, USA).
row,Structure (SMILES),CAR activation compared with scoparone
1,"COc1cc(OC)c2ccc(=O)oc2c1O [Compound 57, 5,7-dimethoxy-8-hydroxycoumarin]",comparable CAR activation effects to scoparone; also recorded: superior CAR activating activity than scoparone
2,"COc1cc2ccc(=O)oc2cc1O[C@@H]1O[C@H](CO)[C@@H](O)[C@H](O)[C@H]1O [Compound 53, scopolin]",superior CAR activating activity than scoparone
3,"COc1c2c(c3oc(=O)ccc3c1OC)OCO2 [Compound 60, 5,6-dimethoxy-7,8-methylenedioxycoumarin]",good activity; also recorded: superior CAR activating activity than scoparone
4,"COc1cc2oc(=O)ccc2cc1OC1OC(CO)C(O)C(O)C1O (stereo not shown) [Compound 52, isoscopolin]",superior CAR activating activity than scoparone
5,"COc1cc2ccc(=O)oc2c2c1OCO2 [Compound 59, 6-Methoxy-7,8-methylenedioxycoumarin]",superior CAR activating activity than scoparone
6,"COc1cc2ccc(=O)oc2c(OC)c1OC [Compound 58, 6,7,8-trimethoxycoumarin]",comparable CAR activation effects to scoparone

# Same assay, conditions: 10 μM; compared to scoparone
row,Structure (SMILES),increased CAR activation fold
1,"COc1cc2ccc(=O)oc2c2c1OCO2 [Compound 59, 6-Methoxy-7,8-methylenedioxycoumarin]",36%

# Same assay, conditions: Table 1; 10 μM; (luminescence of compound − luminescence of scoparone)/luminescence of scoparone × 100%; read-out: CAR Activation Fold
row,Structure (SMILES),activation at 10 µM
1,CC(C)=CCCC(C)=CCCC(C)=CCOc1ccc2oc(=O)ccc2c1 [Compound 17],-41%
2,"COc1ccc2ccc(=O)oc2c1 [Compound 19, 7-methoxycoumarin]",-9%
3,CC(C)=CCCC(C)=CCCC(C)=CCOc1cccc2oc(=O)ccc12 [Compound 8],2%
4,CCCCOc1cccc2oc(=O)ccc12 [Compound 5],-9%
5,"CC(C)=CCCC(C)=CCOc1ccc2ccc(=O)oc2c1 [Compound 25, aurapten]",-13%
6,CC(C)=CCOc1ccc2oc(=O)ccc2c1 [Compound 15],22%
7,CC(C)=CCOc1ccc2ccc(=O)oc2c1 [Compound 24],-35%
8,"COc1ccc2oc(=O)ccc2c1 [Compound 10, 6-methoxycoumarin]",32%
9,"COc1cccc2ccc(=O)oc12 [Compound 28, 8-methoxycoumarin]",-8%
10,CC(=O)Oc1ccc2oc(=O)ccc2c1 [Compound 12],-22%
11,CC(C)=CCCC(C)=CCOc1ccc2oc(=O)ccc2c1 [Compound 16],18%
12,"O=c1ccc2cccc(O)c2o1 [Compound 27, 8-hydroxycoumarin]",40%
13,CC(=O)Oc1cccc2oc(=O)ccc12 [Compound 3],-32%
14,CC(=O)Oc1cccc2ccc(=O)oc12 [Compound 29],-33%
15,CC(C)=CCCC(C)=CCCC(C)=CCOc1ccc2ccc(=O)oc2c1 [Compound 26],-29%
16,CC(C)=CCCC(C)=CCOc1cccc2ccc(=O)oc12 [Compound 33],-30%

row,Structure (SMILES),activation at 10 µM
1,C=CCOc1cccc2ccc(=O)oc12 [Compound 30],-34%
2,"O=c1ccc2ccc(OC(F)(F)F)cc2o1 [Compound 20, 7-Trifluoromethoxycoumarin]",18%
3,CC(C)=CCCC(C)=CCCC(C)=CCOc1cccc2ccc(=O)oc12 [Compound 34],19%
4,CC(=O)Oc1ccc2ccc(=O)oc2c1 [Compound 21],-37%
5,CCCCOc1ccc2oc(=O)ccc2c1 [Compound 14],37%
6,C=CCOc1cccc2oc(=O)ccc12 [Compound 4],-15%
7,"O=c1ccc2cc(O)ccc2o1 [Compound 9, 6-hydroxycoumarin]",-8%
8,"CCCCOc1cccc2ccc(=O)oc12 [Compound 31, 8-n-Butoxycoumarin]",4%
9,C=CCOc1ccc2oc(=O)ccc2c1 [Compound 13],-17%
10,CC(C)=CCCC(C)=CCOc1cccc2oc(=O)ccc12 [Compound 7],-18%
11,CC(C)=CCOc1cccc2ccc(=O)oc12 [Compound 32],2%
12,"O=c1ccc2cc(OC(F)(F)F)ccc2o1 [Compound 11, 6-Trifluoromethoxycoumarin]",-34%
13,"COc1cccc2oc(=O)ccc12 [Compound 2, 5-methoxycoumarin]",-20%
14,"O=c1ccc2ccc(O)cc2o1 [Compound 18, umbelliferone]",-1%
15,"O=c1ccc2c(O)cccc2o1 [Compound 1, 5-hydroxycoumarin]",6%

# Same assay, conditions: Table 2; 10 μM; (luminescence of compound − luminescence of scoparone)/luminescence of scoparone × 100%; read-out: CAR Activation Fold
row,Structure (SMILES),activation at 10 µM
1,"CCCCCCOc1cc2ccc(=O)oc2cc1OCCCCCC [Compound 49, 6,7-Dihexoxycoumarin]",-5%
2,"COc1cc2ccc(=O)oc2cc1O [Compound 38, scopoletin]",-1%
3,"COc1cc2ccc(=O)oc2cc1O[C@@H]1O[C@H](CO)[C@@H](O)[C@H](O)[C@H]1O [Compound 53, scopolin]",17%
4,"O=c1ccc2cc(O)c(O)cc2o1 [Compound 35, esculetin]",-22%
5,CCOc1cc2ccc(=O)oc2cc1OCC [Compound 42],-26%
6,"C=CCOc1cc2ccc(=O)oc2cc1OCC=C [Compound 44, 6,7-Dialloxycoumarin]",-18%
7,"CC(C)=CCC/C(C)=C/COc1cc2ccc(=O)oc2cc1OC/C=C(\C)CCC=C(C)C [Compound 51, 6,7-Digeranoxycoumarin]",-32%
8,Cc1cc2ccc(=O)oc2cc1C [Compound 36],-17%
9,"COc1cc2oc(=O)ccc2cc1O [Compound 37, isoscopoletin]",-10%
10,"COc1cc2oc(=O)ccc2cc1OC1OC(CO)C(O)C(O)C1O (stereo not shown) [Compound 52, isoscopolin]",35%
11,CC(=O)Oc1cc2ccc(=O)oc2cc1OC(C)=O [Compound 43],-11%
12,"CC(C)CCOc1cc2ccc(=O)oc2cc1OCCC(C)C [Compound 48, 6,7-Di-isopentoxycoumarin]",-61%
13,"CCCCOc1cc2ccc(=O)oc2cc1OCCCC [Compound 46, 6,7-Di-n-butoxycoumarin]",-39%
14,CCCOc1cc2ccc(=O)oc2cc1OCCC [Compound 45],-37%
15,O=c1ccc2cc3c(cc2o1)OCCO3 [Compound 41],-50%
16,"O=c1ccc2cc3c(cc2o1)OCO3 [Compound 40, ayapin]",7%

# Same assay, conditions: Table 3; 10 μM; (luminescence of compound − luminescence of scoparone)/luminescence of scoparone × 100%; read-out: CAR Activation Fold
row,Structure (SMILES),activation at 10 µM
1,"COc1cc(OC)c2ccc(=O)oc2c1O [Compound 57, 5,7-dimethoxy-8-hydroxycoumarin]",2%
2,COc1cc(OC)c2ccc(=O)oc2c1OC [Compound 56],-14%
3,"COc1c2c(c3oc(=O)ccc3c1OC)OCO2 [Compound 60, 5,6-dimethoxy-7,8-methylenedioxycoumarin]",12%
4,"COc1cc2oc(=O)ccc2c(OC)c1OC [Compound 54, 5,6,7-trimethoxycoumarin]",-19%
5,"COc1cc2ccc(=O)oc2c2c1OCO2 [Compound 59, 6-Methoxy-7,8-methylenedioxycoumarin]",36%
6,"COc1cc2ccc(=O)oc2c(OC)c1OC [Compound 58, 6,7,8-trimethoxycoumarin]",0%

# Same assay, conditions: read-out: CAR Activation Fold
row,Structure (SMILES),activation at 10 µM
1,"COc1cc2oc(=O)ccc2c(OC)c1O [Compound 55, fraxinol]",-17%
2,C=CCOc1ccc2ccc(=O)oc2c1 [Compound 22],-46%
3,CCCCOc1ccc2ccc(=O)oc2c1 [Compound 23],-51%

# Test system: not given
# Assay: not given
# Details: not given
row,Structure (SMILES),melting point
1,"C=CCOc1cc2ccc(=O)oc2cc1OCC=C [Compound 44, 6,7-Dialloxycoumarin]",84 to 85 °C
2,"O=c1ccc2ccc(OC(F)(F)F)cc2o1 [Compound 20, 7-Trifluoromethoxycoumarin]",69 to 71 °C
3,"CCCCOc1cc2ccc(=O)oc2cc1OCCCC [Compound 46, 6,7-Di-n-butoxycoumarin]",77 to 79 °C
4,"O=c1ccc2cc(OC(F)(F)F)ccc2o1 [Compound 11, 6-Trifluoromethoxycoumarin]",83 to 85 °C
